# According to patent US12343403B2, “Targeted ligand-payload based drug delivery for cell therapy” (Purdue Research Foundation, priority 2017, dated 2025):
# Entries after “also recorded” stand apart in the source; their conditions may differ.
# T1: FKBP51 (Homo sapiens, UniProt Q13451)
# T1 sequence (Q13451 1-457): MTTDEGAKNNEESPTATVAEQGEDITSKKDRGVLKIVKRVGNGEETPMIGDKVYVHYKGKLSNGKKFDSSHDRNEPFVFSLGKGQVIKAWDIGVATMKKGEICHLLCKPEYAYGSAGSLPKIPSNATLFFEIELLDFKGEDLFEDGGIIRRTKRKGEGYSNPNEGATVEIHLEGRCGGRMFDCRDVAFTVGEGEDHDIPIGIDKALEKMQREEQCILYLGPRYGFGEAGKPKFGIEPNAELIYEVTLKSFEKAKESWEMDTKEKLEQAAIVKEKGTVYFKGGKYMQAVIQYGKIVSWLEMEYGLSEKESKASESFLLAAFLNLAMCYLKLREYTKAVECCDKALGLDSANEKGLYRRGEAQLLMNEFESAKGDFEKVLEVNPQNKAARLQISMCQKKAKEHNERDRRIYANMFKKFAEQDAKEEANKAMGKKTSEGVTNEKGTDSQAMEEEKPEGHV
# Assays:
# 4M5.3FR+ human T cells = assay: Cell viability assay, 4M5.3FR+ human T cells; assay type: cell-based
# [1] = tested on: 4M5.3FR+ population in a mixed human T cell culture; assay: Killing of 4M5.3FR+ population in a mixed human T cell culture; assay type: cell-based
# [2] = tested on: FMC63+4M5.3FR+hT cell towards Raji cell; assay: CAR T cell lysis effect, FMC63+4M5.3FR+ hT cell towards Raji cell; assay type: cell-based, human
# Method: 1×10^5 CAR T and certain number of Raji cell were co-incubated in 96 well plate, according to the E:T ratio, with or without the treatment drug. After 24 h, 100 ul supernatant were taken out for LDH assay. Lysis percentage were calculated as (treatment group-CAR T only)/(maximum lysis-CAR T only) %
# [3] = target: T2, FKBPFR3GS fusion receptor (Homo sapiens, UniProt P62942); assay: Binding assay of ligand-dye on FKBPFR3GS (FF3) fusion receptor stably expressed on human T cell, flow cytometry
# T2 construct: human FRa signal peptide (1-24 aa of human FRa) (N); expressed in transfected cells; host or cells: human T cells / Jurkat T cells, lentiviral transduction
# T2 sequence (P62942 with tags, fused parts or gaps): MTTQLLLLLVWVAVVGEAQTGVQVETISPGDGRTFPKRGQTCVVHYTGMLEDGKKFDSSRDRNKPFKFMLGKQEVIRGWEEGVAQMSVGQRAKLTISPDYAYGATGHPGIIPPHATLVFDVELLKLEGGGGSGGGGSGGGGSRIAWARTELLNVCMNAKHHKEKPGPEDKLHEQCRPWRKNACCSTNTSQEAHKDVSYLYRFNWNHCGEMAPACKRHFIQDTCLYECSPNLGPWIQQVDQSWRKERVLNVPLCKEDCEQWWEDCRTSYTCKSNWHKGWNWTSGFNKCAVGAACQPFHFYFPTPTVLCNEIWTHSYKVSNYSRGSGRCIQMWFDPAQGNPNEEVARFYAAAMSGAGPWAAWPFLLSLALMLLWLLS
# Method: For binding assay, cells were incubated with ligand-dye alone or with ligand-dye and free ligands (100×, preincubated for 30 min) for 30 min, at 4 degree. Cells were washed 3 times after incubation, and re-suspended in 2% FBS PBS, 7-AAD were added to gate out the dead cells. […] FRET is visualized by the loss of intensity of FA-Rhodamine as its energy transferred to FA-OTL38 on the same or nearby receptor, detected by BD Fortessa flow cytometer. Results were analyzed using Flow Jo software.
# For binding assay, cells were incubated with ligand-dye alone or with ligand-dye and free ligands (100×, preincubated for 30 min) for 30 min, at 4 degree. Cells were washed 3 times after incubation, and re-suspended in 2% FBS PBS, 7-AAD were added to gate out the dead cells. BD Fortessa flow cytometer were used. Results were analyzed using FlowJo software.
# FKBP51 = target: T1, FKBP51; conditions: read-out: KD FK506; cited from earlier work
# [4] = target: T3, FKBPFR1GS fusion receptor (Homo sapiens, UniProt P62942); assay: Interference/FRET binding assay in FKBPFR1GS (FF1) fusion receptor Jurkat cells
# T3 construct: human FRa signal peptide (1-24 aa of human FRa) (N); expressed in transfected cells; host or cells: Jurkat cells, lentiviral transduction
# T3 sequence (P62942 with tags, fused parts or gaps): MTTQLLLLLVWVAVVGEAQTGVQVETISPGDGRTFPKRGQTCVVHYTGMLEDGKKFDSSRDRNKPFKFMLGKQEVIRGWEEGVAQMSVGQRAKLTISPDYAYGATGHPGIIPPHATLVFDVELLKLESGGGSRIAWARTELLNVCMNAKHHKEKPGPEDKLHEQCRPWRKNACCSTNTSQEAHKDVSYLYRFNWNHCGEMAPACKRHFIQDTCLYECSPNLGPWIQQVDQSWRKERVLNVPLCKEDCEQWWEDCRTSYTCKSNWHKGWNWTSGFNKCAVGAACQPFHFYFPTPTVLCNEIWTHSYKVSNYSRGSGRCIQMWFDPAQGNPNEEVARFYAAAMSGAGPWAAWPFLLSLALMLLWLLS
# Method: Cells were washed 3 times after incubation, and re-suspended in 2% FBS PBS, 7-AAD were added to gate out the dead cells. […] Results were analyzed using Flow Jo software. […]
# FF3+ human T cell = conditions: 100× preincubation with FA
# Method: Cells were seeded to 96 well plate and incubated with different concentration of certain ligand-cytotoxic drug for 2 h, with or without 100× preincubation of the free ligand competition. After 2 h incubation, cells were washed by warm medium 3 times and replenished with fresh medium. After 72 h, cell number were tested by CellTiter-Glo® assay (G7570, Promega) or quantified by ligand-dye staining of receptor positive cell.
# [5] = scFv against FITC; cited from earlier work
molecule,measurement,setting,value
COc1cc2cc(c1Cl)N(C)C(=O)C[C@H](OC(=O)[C@H](C)N(C)C(=O)CCC(C)(C)SSCCNC(=S)Nc1cccc3c1C(=O)OC31c3ccc(O)cc3Oc3cc(O)ccc31)C1(C)O[C@H]1[C@H](C)C1CC(O)(NC(=O)O1)[C@H](OC)/C=C\C=C(\C)C2 (stereo partly drawn) [FITC-DM4],killing of 4M5.3FR+ human T cells,"4M5.3FR+ human T cells; 2 h incubation, read after 72 h",specifically kill
same,killing of 4M5.3FR+ population in mixed human T cell culture,"[1]; 4M5.3FR+ cells, increasing concentration",specifically kill the 4M5.3FR+ population
same,killing of 4M5.3FR- cells in mixed human T cell culture,"[1]; 4M5.3FR- cells, high concentration, bystander effect",killed also through released drugs and bystander effect at high concentration
Cc1nc(Nc2ncc(C(=O)Cc3c(C)cccc3Cl)s2)cc(N2CCN(CCOC(=O)OCCSSCCNC(=S)Nc3ccc4c(c3)C(=O)OC43c4ccc(O)cc4Oc4cc(O)ccc43)CC2)n1 [FITC-Dasatinib],lysis effect of FMC63+4M5.3FR+ hT cell towards Raji cell,[2],decrease the lysis effect
CO[C@H]1C[C@@H](C)[C@@]2(O)O[C@H]1[C@H](OC)C[C@H](C)C/C(C)=C\[C@H](C/C=C/c1ccc(C(=O)NCCCOCCOCCOCCCNC(=O)c3ccc(-c4c5ccc(=[N+](C)C)cc-5oc5cc(N(C)C)ccc45)c(C(=O)O)c3)cc1)C(=O)C[C@H](O)[C@@H](C)[C@@H](/C(C)=C/[C@@H]1CC[C@@H](O)[C@H](OC)C1)CC(=O)C1CCCCN1C(=O)C2=O (stereo partly drawn) [FK506-Rhodamine],binding of FK506-Rhodamine in the presence of FA,"[3]; FF3 (3GS linker) compared to FF1, 10 nM FA",preserves the binding
C=CC[C@@H]1/C=C(\C)C[C@H](C)C[C@H](OC)[C@H]2O[C@@](O)(C(=O)C(=O)N3CCCC[C@H]3C(=O)O[C@H](/C(C)=C/[C@@H]3CC[C@@H](O)[C@H](OC)C3)[C@H](C)[C@@H](O)CC1=O)[C@H](C)C[C@@H]2OC [FK506],Kd,FKBP51,~104 nM
Nc1nc(=O)c2nc(CNc3ccc(C(=O)N[C@@H](CCC(=O)O)C(=O)O)cc3)cnc2[nH]1 [Folate acid],concentration at which Folate acid totally abolishes FK506-Rhodamine binding,[4]; FKBPFR1GS fusion protein,50 nM
same,concentration at which Folate acid blocks the binding of FK506-Rhodamine,"[4]; FKBPFR1GS fusion protein, lowest blocking concentration",≥ 10 pM
same,competition of FA-Tubulysin killing effect by FA,FF3+ human T cell,blocks the effect
COc1ccc(CCC(OC(=O)C2CCCCN2C(=O)C(=O)C(C)(C)C)c2cccc(NC(=O)CCC(=O)NCCOCCOCCOCCNC(=S)Nc3ccc(-c4c5ccc(=O)cc-5oc5cc(O)ccc45)c(C(=O)O)c3)c2)cc1OC (stereo not drawn) [SLF-FITC],Kd,"[3]; FKBPFR3GS fusion receptor stably expressed on human T cell, 30 min, 4 degree",62 nM
CCC(C)(C)C(=O)C(=O)N1CCCC[C@H]1C(=O)O[C@H](CCc1ccc(OC)c(OC)c1)c1cccc(OCC(=O)O)c1 [SLF],times lower binding affinity to FKBPFR fusion receptor compared to parent ligand FK506,[3]; SLF vs FK506,10 times
same,competition of SLF-FITC binding by free SLF,"[3]; free SLF 100×, preincubation",blocks SLF-FITC binding; also recorded: blocks this binding
FITC sodium,competition of receptor mediated killing effect by free FITC sodium,4M5.3FR+ human T cells; 100× preincubation,blocks the receptor mediated killing effect
OTL38,FRET: FK506-Rhodamine intensity after binding to OTL38,"[4]; FKBPFR1GS jurkat cell, FK506-Rhodamine donor, OTL38 acceptor",decreased FK506-Rhodamine intensity
"4M5.3: scFv against FITC, SEQ ID NO:19 (protein, A synthetic scFv against FITC 4M5.3(Kd = […]pM)) scFv: DVVMTQTPLSLPVSLGDQASISCRSSQSLVHSNGNTYLRWYLQKPGQSPKVLIYKVSNRVSGVPDRFSGSGSGTDFTLKINRVEAEDLGVYFCSQSTHVPWTFGGGTKLEIKSSADDAKKDAAKKDDAKKDDAKKDGGVKLDETGGGLVQPGGAMKLSCVTSGFTFGHYWMNWVRQSPEKGLEWVAQFRNKPYNYETYYSDSVKGRFTISRDDSKSSVYLQMNNLRVEDTGIYYCTGASYGMEYLGQGTSVTVSS",Kd,[5],0.2 nM
